Test results taken from PMC4477702 (The Biochemical journal, 2015).

How the values were obtained:
[1] = molecular target: T1, Arabidopsis (At) COG3236 domain of RIBR (Arabidopsis thaliana, UniProt Q9STY4); assay: HPLC-UV product formation; assay type: biochemical; settings: pH 8.0, 22°C, 1 h
T1 sequence (Q9STY4 405-599 limits assumed): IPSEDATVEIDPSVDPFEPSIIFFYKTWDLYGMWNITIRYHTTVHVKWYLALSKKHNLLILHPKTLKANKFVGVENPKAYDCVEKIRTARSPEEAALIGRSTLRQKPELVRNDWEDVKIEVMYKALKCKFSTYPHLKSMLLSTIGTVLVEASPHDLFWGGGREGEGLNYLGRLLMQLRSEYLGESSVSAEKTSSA

[2] = molecular target: T2, N. punctiforme (Np) COG3236 (Nostoc punctiforme, UniProt B2J4E5); assay: HPLC-UV product formation; assay type: biochemical; settings: pH 8.0, 22°C, 1 h
T2 sequence (B2J4E5 1-156): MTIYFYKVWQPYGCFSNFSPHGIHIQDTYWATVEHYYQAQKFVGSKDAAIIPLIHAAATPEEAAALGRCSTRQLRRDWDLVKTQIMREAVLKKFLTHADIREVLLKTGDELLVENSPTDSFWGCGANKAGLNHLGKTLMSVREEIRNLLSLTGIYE

Compound	HPLC-UV product formation; diacetyl derivatization ([1]; 3 mM substrate, 30 μg protein)	HPLC-UV product formation ([2]; 3 mM substrate, 30 μg protein)	HPLC-UV product formation; diacetyl derivatization ([1]; 2.4 mM substrate, 0.1 μg protein)	HPLC-UV product formation ([2]; 2.4 mM substrate, 1 μg protein)
Nc1nc(N[C@@H]2O[C@H](COP(=O)(O)O)[C@@H](O)[C@H]2O)c(N)c(=O)[nH]1 (mixture of isomers) [compound 1, 2,5-diamino-6-ribosylamino-4(3H)-pyrimidinone 5′-phosphate]	All five COG3236 proteins gave rise to a new HPLC peak when mixed with intermediate	All five COG3236 proteins gave rise to a new HPLC peak when mixed with intermediate		
Nc1c(N[C@@H]2O[C@H](COP(=O)(O)O)[C@@H](O)[C@H]2O)[nH]c(=O)[nH]c1=O (mixture of isomers) [compound 2, 5-amino-6-ribosylamino-2,4(1H,3H)-pyrimidinedione 5′-phosphate]			All five COG3236 proteins gave rise to a new HPLC peak when mixed with intermediate	All five COG3236 proteins gave rise to a new HPLC peak when mixed with intermediate
